The values that follow come from the Deep4Chem optical property database.

SMILES strings stand for the structures. Values joined by “and” are separate entries in the source; they are usually repeats but may differ in a detail not shown here. Equal values may be shown once.

This data set is described as follows: solvent given as SMILES.

Regarding `Cc1cc(C)c(C)c(B(c2c(C)c(C)cc(C)c2C)c2c(C)c(C)c(N3c4ccccc4Oc4ccccc43)c(C)c2C)c1C`, the fluorescence lifetime (in CC(C)(C)c1ccc(-n2c3ccc([Si](c4ccccc4)(c4ccccc4)c4ccccc4)cc3c3cc([Si](c4ccccc4)(c4ccccc4)c4ccccc4)ccc32)cc1) was 5.9 ns.
With `N#Cc1ccc(/C=C2\OC(=O)c3cc(N)ccc32)cc1`, the fluorescence lifetime reads like this: (in CC#N) 0.51 ns; (in CC(C)=O) 0.54 ns; (in CC(C)CO) 2.4 ns; (in CCO) 2.2 ns; (in CCOC(C)=O) 0.75 ns; (in CO) 2.67 ns.
In the case of `CN(C)c1ccc(C2=Cc3cccc[n+]3[B-](F)(F)O2)cc1`, for the setting “in ClC(Cl)Cl”, the fluorescence lifetime turned out to be 2.68 ns.
Consider `CCOC(=O)c1ccccc1-c1c2ccc(=[N+](CC)CC)cc-2oc2cc(N(CC)CC)ccc12`, for which the fluorescence lifetime is, setting by setting: (in CC#N) 1.69 ns; (in CCO) 2.94 ns; (in CN(C)C=O) 2.16 ns; (in O) 1.74 ns.
Turning to `N#Cc1cccc2cc[nH]c12`, the fluorescence lifetime by setting is: (in C1CCOC1) 6.9 ns; (in C1COCCO1) 7.5 ns; (in CC#N) 8 ns; (in CC(C)O) 9 ns; (in CCO) 8.7 ns; (in CO) 8.2 ns. Further, the fluorescence lifetime amounted to 14.5 ns (in CS(C)=O); 15.7 ns (in NC=O); 2 ns (in O); 1.2 ns (in OCC(F)(F)F); 2.3 ns (in [2H]O[2H]).
Turning to `C#CCNC1=C2C(C)=CC(C)=[N+]2[B-](F)(F)n2c(C)cc(C)c21`, the fluorescence lifetime reads like this: (in C1CCCCC1) 1.78 ns; (in CC(C)=O) 0.61 ns; (in CCOC(C)=O) 0.78 ns; (in CO) 0.518 ns; (in OCC(F)(F)F) 0.76 ns.
Consider `CN(C)c1ccc(C(=Cc2ccc(/C=C/c3ccc(C#N)cc3)cc2)c2ccc(N(C)C)cc2)cc1`, for which the fluorescence lifetime (in C1CCOC1) came out at 1 ns.
As for `O=C1NC(=O)c2ccc3c4ccc5c6c(ccc(c7ccc1c2c73)c64)C(=O)N(c1ccc(Cl)cc1)C5=O`, the fluorescence lifetime (in CN(C)C=O) was 3.1 ns.
Consider `CCN(CC)c1ccc(/C=C/c2ccc(-c3ccc(/C=C/c4ccc(N(CC)CC)cc4)s3)s2)cc1`, for which the fluorescence lifetime is 1.1 ns (in C1CCOC1); 1.14 ns (in CC#N); 1.11 ns (in CC(C)=O); 1.18 ns (in CN(C)C=O); 1.02 ns (in Cc1ccccc1).
Consider `CC(=O)[B-]1(C(C)=O)OC(c2ccc3ccccc3c2)=CC(c2ccc3ccccc3c2)=[O+]1`, for which the fluorescence lifetime was determined as 5.5 ns (in CC#N) and 1.1 ns (in ClC(Cl)(Cl)Cl).
`O=C1O[B-]2(OC1=O)OC(c1ccccc1)=CC(c1ccc3ccccc3c1)=[O+]2`: the fluorescence lifetime by setting is: (in CC#N) 5.4 ns; (in ClC(Cl)(Cl)Cl) 1.6 ns.
Consider `CCN(CC)c1ccc2cc(-c3nc4ccccc4s3)c(=O)oc2c1`, for which the fluorescence lifetime by setting is: (in C1CCCCC1) 2.38 ns; (in CC1CCCCC1) 2.32 ns; (in CC#N) 3.2 ns and 2.55 ns; (in CCC(C)CC) 2.38 ns; (in CCCCCC) 2.37 ns; (in CCO) 2.5 ns. The same molecule gave a fluorescence lifetime (in CCOC(C)=O) of 2.46 ns.
On to `COC(=O)/C(C#N)=c1\s/c(=c2/s/c(=C(/C#N)C(=O)OC)c3cc(-c4ccc(F)cc4)sc23)c2sc(-c3ccc(F)cc3)cc12`, for which, where the note is “in Cc1ccccc1”, the fluorescence lifetime amounted to 2.9 ns.
As for `C(=C\c1cccc2ccccc12)/c1ccc(-c2nnc(-c3ccc(-c4cc5ccccc5s4)cc3)o2)cc1`, the fluorescence lifetime reads like this: (in Cc1ccccc1) 0.97 ns; (in ClC(Cl)Cl) 1.15 ns.
Regarding `Cc1c2oc3c(C)c(N)cc(C(=O)NC4OC(=O)C(C(C)C)N(C)C(=O)CN(C)C(=O)C5CCCN5C(=O)C(C(C)C)NC4=O)c3nc-2c(C(=O)NC2OC(=O)C(C(C)C)N(C)C(=O)CN(C)C(=O)C3CCCN3C(=O)C(C(C)C)NC2=O)c(N)c1=O` (stereo unspecified), the fluorescence lifetime runs as follows: (in C1CCCCC1) 1.07 ns; (in CC#N) 1.54 ns; (in CC(=O)O) 0.49 ns; (in CC(C)=O) 0.93 ns; (in CCCCO) 1.5 ns; (in CCCCOC(C)=O) 1.1 ns. This molecule also returned a fluorescence lifetime (in CCCO) of 1.34 ns; a fluorescence lifetime (in CCN(CC)CC) of 0.62 ns; a fluorescence lifetime (in CCO) of 1.22 ns; a fluorescence lifetime (in CCOC(C)=O) of 1.19 ns; a fluorescence lifetime (in CO) of 0.5 ns; a fluorescence lifetime (in CS(C)=O) of 1.8 ns. Also, the fluorescence lifetime reads like this: (in Cc1ccccc1) 1.23 ns; (in ClC(Cl)Cl) 1.02 ns; (in ClCCCl) 1.16 ns; (in O) 0.75 ns; (in O=[N+]([O-])c1ccccc1) 0.37 ns; (in [2H]O[2H]) 1.08 ns. Besides, the fluorescence lifetime runs as follows: (in c1ccccc1) 1.22 ns; (in c1ccncc1) 1.53 ns.
Take `CCN(CC)c1ccc2cc(/C(Cl)=C/C=C/C(=C(C#N)C#N)c3ccc4c(c3)c3ccccc3n4CC)c(=O)oc2c1`: the fluorescence lifetime (in CC(C)=O) was 0.47 ns; the fluorescence lifetime (in CCOC(C)=O) turned out to be 1.14 ns; the fluorescence lifetime (in CN(C)C=O) was found to be 0.86 ns; the fluorescence lifetime (in CS(C)=O) turned out to be 0.36 ns; the fluorescence lifetime (in Cc1ccccc1) was determined as 1.39 ns; the fluorescence lifetime (in ClCCl) worked out at 1.82 ns.
Consider `Cc1ccc(-n2c3ccccc3c3cc(-c4ccc5[n+](c4)[B-](F)(F)n4c-5nc5c6ccccc6c6ccccc6c54)ccc32)cc1`, for which the fluorescence lifetime (in ClC(Cl)Cl) worked out at 15 ns.
For the molecule `CN(C)c1ccc2cc3ccc(=[N+](C)C)cc-3oc2c1`, the fluorescence lifetime stood at 2.26 ns (in CCO) and 1.86 ns (in O).
On to `CC(C)(C)c1cc2c3cc(C(C)(C)C)c(-c4cc5cc6c7cccc8cccc(c9cc(C(C)(C)C)cc(c5cc4C(C)(C)C)c96)c87)cc3cc3c4cccc5cccc(c(c1)c23)c54`, for which, for the setting “in CC1CCCCC1”, the fluorescence lifetime was 3.4 ns.
`CCN1/C(=C\c2c(-c3ccc(N(C)C)cc3)c(=O)c2=O)C=Cc2ccccc21`: the fluorescence lifetime stood at 1 ns (in C1CCCCC1), 1.85 ns (in Cc1ccccc1) and 0.1 ns (in ClCCl).
For `CCN(CC)c1ccc(-c2cc3c(s2)c(C(=O)OC)cc(=O)n3C)cc1`, the fluorescence lifetime (in ClCCl) was 6.59 ns.
With `CCCCCCC(CCCCCC)N1C(=O)c2cccc3c(-c4cc(OC)c(OC)c(OC)c4)ccc(c23)C1=O`, the fluorescence lifetime is, setting by setting: (in CCCCCC) 2.03 ns; (in CCCCCCCCCCCCCC) 2.78 ns; (in CCCCCCCCCCCO) 1.75 ns; (in CCCCO) 0.208 ns; (in CN(C)C=O) 0.119 ns; (in Cc1ccccc1) 5.4 ns. The same molecule gave a fluorescence lifetime (in ClC(Cl)Cl) of 6.62 ns.
Consider `CN(C)c1ccc2nc(-c3ccc(/C=N/c4ccccc4)cc3)sc2c1`, for which the fluorescence lifetime (in C1CCCCC1) stood at 2.2 ns.
Regarding `Oc1cc2ccc3cc(O)cc4ccc(c1)c2c34`, for the setting “in CO”, the fluorescence lifetime worked out at 29 ns.
`CCOc1cccc(-c2nc3c(c4c2-c2ccccc2CC4)-c2ccccc2CC3)c1O` showed a fluorescence lifetime (in ClCCl) of 0.65 ns.
Turning to `Cc1cc(C)c(B(c2ccc(C#Cc3cc4ccc5cc(C#Cc6ccc(B(c7c(C)cc(C)cc7C)c7c(C)cc(C)cc7C)cc6)cc6ccc(c3)c4c56)cc2)c2c(C)cc(C)cc2C)c(C)c1`, the fluorescence lifetime (in Cc1ccccc1) is 58 ns.
Turning to `Cc1cc(C)c(B(c2ccccc2N(c2ccccc2)c2ccccc2)c2c(C)cc(C)cc2C)c(C)c1`, the fluorescence lifetime (in Cc1ccccc1) was 27 ns.
Take `C(#Cc1nccnc1C#Cc1ccccc1)c1ccccc1`: under “in CC#N”, the fluorescence lifetime worked out at 0.336 ns.
Consider `CCN1\C(=C/C=C/C=C/C2=[N+](CC)c3ccc4ccccc4c3C2(C)C)C(C)(C)c2c1ccc1ccccc21`, for which the fluorescence lifetime by setting is: (in C1CCOC1) 1.11 ns; (in CC#N) 0.85 ns; (in CC(C)=O) 0.96 ns; (in CCO) 0.93 ns; (in CN(C)C=O) 1.19 ns; (in CO) 0.76 ns. Besides, the fluorescence lifetime turned out to be 1.31 ns (in CS(C)=O) and 1.3 ns (in ClCCl).
As for `Cn1nc(-c2ccccc2)c2nc3cc(Cl)ccc3nc21`, the fluorescence lifetime runs as follows: (in C1CCCCC1) 23.9 ns; (in C1CCOC1) 20.1 ns; (in CC#N) 7.74 ns.
For the molecule `COc1ccc2c3ccc(OC)cc3c3cc4c(C)cc(=O)oc4cc3c2c1`, the fluorescence lifetime (in ClC(Cl)Cl) turned out to be 6.2 ns.
The molecule `COc1ccc(-c2nc(-c3ccc(-c4nc(-c5ccc(OC)cc5)c(-c5ccc(OC)cc5)[nH]4)s3)[nH]c2-c2ccc(OC)cc2)cc1` had a fluorescence lifetime (in CC#N) of 1.42 ns.
Where the note is “in CCOC(C)=O”, `O=Cc1cc2c(cc3ccc4cccc5ccc2c3c45)[nH]1` gave a fluorescence lifetime of 2.55 ns.
`COc1cc2c(cc1-c1ccc(C#N)cc1)Cc1c3c(c4c(c1-2)-c1cc(OC)c(-c2ccc(C#N)cc2)cc1C4)C(=O)N(CCC(C)C)C3=O` had a fluorescence lifetime (in C1CCOC1) of 2.1 ns.
With `CCCCCCCCn1c2ccccc2c(=O)c2ccccc21`, the fluorescence lifetime (in CS(C)=O) amounted to 7.96 ns.
Where the note is “in O”, `Cc1cn(CCCn2cc(C)c(=O)[nH]c2=O)c(=O)nc1-n1cncn1` registered a fluorescence lifetime of 0.74 ns.
Consider `CCOC(=O)CN1C(=O)C2=C(c3ccc(N4CCCCC4)cc3)N(CC(=O)OCC)C(=O)C2=C1c1ccccc1`, for which the fluorescence lifetime by setting is: (in CC#N) 2.7 ns; (in CS(C)=O) 6.7 ns; (in Cc1ccccc1) 4 ns.
On to `COc1ccccc1-c1c(-c2ccccc2O)nc(-c2ccc(C(F)(F)F)cc2)n1-c1ccc(C)cc1`, for which the fluorescence lifetime was 2.82 ns (in C1CCOC1); 1.8 ns (in CC(C)O); 1.5 ns (in CO); 2.2 ns (in CS(C)=O); 0.96 ns (in ClC(Cl)Cl); 3.82 ns (in ClCCl).
As for `COC(=O)c1[nH]c(-c2ccccc2)c2nnc3ccc(OC)cc3c12`, where the note is “in ClCCl”, the fluorescence lifetime is 2.23 ns.
Molecule `CCOC(=O)CCCCCn1c2ccc([N+](=O)[O-])cc2c(=O)c2cc3c(cc21)c(=O)c1cc([N+](=O)[O-])ccc1n3CCCCCC(=O)OCC` registered a fluorescence lifetime (in ClCCl) of 5.1 ns.
As to `c1ccc2cc3cnccc3cc2c1`, the fluorescence lifetime (in CCO) was found to be 20 ns.
Molecule `CCC1(CC)c2cc(-c3cccs3)ccc2-c2c1c1c(c3c2C(CC)(CC)c2cc(-c4cccs4)ccc2-3)C(CC)(CC)c2cc(-c3cccs3)ccc2-1` came in with a fluorescence lifetime (in C1CCOC1) of 2.1 ns.
